Reference: patent publication US12329735B2, “Azelaic acid esters in the treatment of insulin resistance” (NEW FRONTIER LABS, LLC, priority 2016, dated 2025)

Columns and labels:
[1] = test system: PAMP receptors (Toll-Like Receptors) on dendritic cells; test: PAMP receptor agonist-induced signaling in dendritic cells; format: cell-based; details: 0.5% DEA, 24 hours
Protocol: The azelates modulated broad-range signaling of pathogen-associated molecular patterns (PAMP) receptors: Toll-Like Receptors (TLRs) are a class of PAMP receptors. Various PAMP receptor agonists (ligands); nineteen discrete entities, were added to dendritic cells along with 0.5% diethyl azelate (DEA) and measured levels of 34 signaling molecules (ATP, cytokines, chemokines) produced by the cells after 24 hours. To assess if DEA affected PAMP receptor signaling, the ratios of the levels of these molecules were calculated in treated and untreated cells. If DEA had no effect, these ratios would be equal to 1. […] A similar effect of DEA was observed on the ratios of other signaling molecules.

[2] = Oral glucose tolerance test in ethanol-induced insulin resistance state, human self-study; format: in vivo
[3] = Human clinical trial: OGTT in non-diabetic insulin resistant adult males at Day 1 and Day 21; format: in vivo; details: for Percent change: Day-1 vs. Day-21 average blood glucose: (Day-1 − Day-21)/Day-21 ×100%; for OGTT Blood Glucose Level, Day-21 Group Average: after 21 days 1 mg/kg oral once a day, 3 subjects
Protocol: A total of eight subjects were screened, out of which four subjects satisfied all the eligibility criteria. Three healthy male volunteers ranging between 18-50 years of age weighing between 80-120 kg were enrolled in the study. At screening, subjects were non-diabetic insulin resistant (NDIR) having a fasting plasma glucose of greater than 75 mg/dL and less than 126 mg/dL and have a compensatory hyperinsulinemia having a mean of two consecutive fasting insulin samples collected between 10 to 30 minutes apart of great than 12 μIU/mL. Subjects had no clinically significant illness that may affect glucose metabolism, insulin sensitivity or makes them otherwise unsuitable for inclusion in the study. Subjects had no history or ongoing significant abnormalities or diseases, in the areas, such as, endocrine, gastrointestinal, cardiovascular, hematological, renal, upper or lower respiratory, neoplasia. Subjects had no uncontrolled blood pressure of greater than 160/95 mmHg at screening. […] Subjects had not used antidiabetic or antihyperglycemic medications in the last 6 months. Subjects had not used tobacco or nicotine containing products in the last 3 months. Subjects were not mentally or legally incapacitated. Subjects had no history of significant psychiatric disorder (within the last 10 years) and had no significant emotional problems at the time of the study. All subjects were evaluable for safety and all blood collections for pharmacokinetic analysis were collected as scheduled. All studies were performed with institutional review board approval and patient consent. The Board was constituted and operated in accordance with the principles and requirements described in the US Code of Federal Regulations (21 CFR Part 56). The board was ICH compliant. This study was an open label test/retest study measuring the change from baseline of selected biomarkers and computational indices of insulin sensitivity of the adult male volunteers in response to multiple doses of diethyl azelate. The study population was restricted to male participants in order to control for the variability associated with the menstrual cycle on the metabolic parameters of interest (Sheu, Chen et al. 2003). Baseline parameters were assessed followed by retest assessments at three weeks (21-days) post-dose. Diethyl azelate (density of 0.973 g/mL at 25° C. or 973 mg/mL) was administered orally by needless syringes once a day at 1 mg/kg to each subject for 21 days starting at Day 1. The dose was calculated as described below, with standard rounding conventions applied to the nearest 0.01 mL: 1 mg/kg×Participant Weight (kg)×(1 mL/973 mg)=X mL to Dose Additional marketed pharmaceutical products were administered as part of the study procedures or as challenge agents associated with the Oral Glucose Tolerance (OGTT). These include 75 g CHO (carbohydrate) Glucola and small volumes of 0.9% Normal Saline administered intravenously secondary to blood collection. Subjects were evaluated with a baseline OGTT on Day 1 and a final OGTT on Day 21. Safety assessments were performed on each subject during the course of the study including clinical examination, vital signs recording, ECG recording, adverse event (AE) monitoring, and concomitant medication assessment. An Oral Glucose Tolerance Test (OGTT) was performed at baseline on Day 1 and Day 21. The OGTT was performed after a fast greater than eight hours and consisted of eight blood collections. Subjects were administrated a bottle of Glucola drink (containing 50% dextrose I 75 g dextrose in 150 mL solution; available as GlucoCrush™) over a course of five minutes, starting at T=0 (first sip of the Glucola). Two blood-draws occurred ˜30 minutes and just prior (˜0 minute) to administration of the Glucola. Post-meal blood collection occurred at 30, 60, 90, 120, and 180 minutes. Samples for glucose and exploratory PK and biomarker samples were collected at all timepoints associated with the OGTT. […]

[4] = test system: EpiDerm 3-D human skin tissue; test: EpiDerm 3-D human skin tissue exposed to croton oil plus azelates, multiplex immunoassays of 47 markers; format: cell-based; details: croton oil + azelate, 24 hours; medium and tissue lysates
Protocol: EpiDerm 3-D human skin tissue (MatTek) was exposed to an irritant, croton oil+the azelates for 24 hours. Levels of 47 cytokines and other signaling molecules were measured in cultured media and tissue lysates using multiplex immunoassays. Relative % differences in levels of select markers in medium and tissues after treatment with croton oil plus azelates versus croton oil alone were graphed as heat maps displaying statistically significant/nearly significant differences and distinct patterns of marker modulation. The azelates also exerted chemoprotective activity against croton oil damage on microscopic examination.

[5] = Human clinical trial: safety and tolerability; format: in vivo
Protocol: To evaluate the safety and tolerability of diethyl azelate (immediate release form) when administered orally to insulin resistant adult male volunteers, and to evaluate the change from baseline of selected biomarkers and computational indices of dysmetabolism when diethyl azelate is administered orally to insulin resistant adult male volunteers.
A total of eight subjects were screened, out of which four subjects satisfied all the eligibility criteria. Three healthy male volunteers ranging between 18-50 years of age weighing between 80-120 kg were enrolled in the study. At screening, subjects were non-diabetic insulin resistant (NDIR) having a fasting plasma glucose of greater than 75 mg/dL and less than 126 mg/dL and have a compensatory hyperinsulinemia having a mean of two consecutive fasting insulin samples collected between 10 to 30 minutes apart of great than 12 μIU/mL. Subjects had no clinically significant illness that may affect glucose metabolism, insulin sensitivity or makes them otherwise unsuitable for inclusion in the study. Subjects had no history or ongoing significant abnormalities or diseases, in the areas, such as, endocrine, gastrointestinal, cardiovascular, hematological, renal, upper or lower respiratory, neoplasia. Subjects had no uncontrolled blood pressure of greater than 160/95 mmHg at screening. […] Subjects had not used antidiabetic or antihyperglycemic medications in the last 6 months. […]
Diethyl azelate (density of 0.973 g/mL at 25° C. or 973 mg/mL) was administered orally by needless syringes once a day at 1 mg/kg to each subject for 21 days starting at Day 1. The dose was calculated as described below, with standard rounding conventions applied to the nearest 0.01 mL: 1 mg/kg×Participant Weight (kg)×(1 mL/973 mg)=X mL to Dose
Additional marketed pharmaceutical products were administered as part of the study procedures or as challenge agents associated with the Oral Glucose Tolerance (OGTT). […] Subjects were evaluated with a baseline OGTT on Day 1 and a final OGTT on Day 21. […]

[6] = oral 1 mg/kg once a day, 21 days, three subjects

SMILES: CCOC(=O)CCCCCCCC(=O)OCC [diethyl azelate]
- signaling induced by TLR agonists (ATP ratio treated/untreated cells) [1]: decreased signaling induced by most TLR agonists
- effect on signaling of PAMP receptors ([1]; 34 signaling molecules): affected signaling of all PAMP receptors but the effect was greater for the receptors localized on the cell surface than for these inside the cell
- percentage decrease of glucose levels vs untreated control state (ethanol-induced insulin resistance) ([2]; fasting (t=0), p=0.02): 13.6%
- change in blood glucose in induced insulin resistance state (OGTT) ([2]; human self-study, 50 ml ethanol, 1 mg/kg oral 8 hours prior to OGTT (75 g glucose), 0, 1, 2, 4 hours): significant decrease of glucose at the baseline (fasting) and highly significant (p<0.0001) at the peak postprandial time point at 2 hours
- percentage decrease of glucose levels vs untreated control state (ethanol-induced insulin resistance) ([2]; t=1 hour, statistically not significant): 11.4%
- percentage decrease of glucose levels vs untreated control state (ethanol-induced insulin resistance) ([2]; t=2 hours, p=6×10−6): 36.7%
- increase in glucose level vs untreated control state (ethanol-induced insulin resistance) ([2]; t=4 hours, not statistically significant): 8.8%
- Percent change: Day-1 vs. Day-21 average blood glucose ([3]; 0 min): 6.5%
- OGTT Blood Glucose Level, Day-21 Group Average ([3]; 0 min): 94.5 mg/dL
- Percent change: Day-1 vs. Day-21 average blood glucose ([3]; 30 min): 14.5%
- OGTT Blood Glucose Level, Day-21 Group Average ([3]; 30 min): 148.0 mg/dL
- Percent change: Day-1 vs. Day-21 average blood glucose ([3]; 60 min): 15.7%
- OGTT Blood Glucose Level, Day-21 Group Average ([3]; 60 min): 142.3 mg/dL
- Percent change: Day-1 vs. Day-21 average blood glucose ([3]; 90 min): 46.3%
- OGTT Blood Glucose Level, Day-21 Group Average ([3]; 90 min): 105.8 mg/dL
- Percent change: Day-1 vs. Day-21 average blood glucose ([3]; 120 min): 15.1%
- OGTT Blood Glucose Level, Day-21 Group Average ([3]; 120 min): 99.2 mg/dL
- Percent change: Day-1 vs. Day-21 average blood glucose ([3]; 180 min): 18.6%
- OGTT Blood Glucose Level, Day-21 Group Average ([3]; 180 min): 71.2 mg/dL
- insulin metabolism profile after treatment ([3]; all three subjects, after 21 days of treatment): normal healthy insulin metabolism profiles
- average blood glucose levels after the 3-weeks treatment course ([3]; at T=30 mins and 60 mins, pre-treatment 164 to 170 mg/dl): below 150 mg/dl
- Percent change: Day-1 vs. Day-21 average blood glucose ([3]; −5 min): 6.2%
- OGTT Blood Glucose Level, Day-21 Group Average ([3]; −5 min): 94.0 mg/dL
- Percent change: Day-1 vs. Day-21 average blood glucose ([3]; −30 min): 6.0%
- OGTT Blood Glucose Level, Day-21 Group Average ([3]; −30 min): 94.1 mg/dL
- cytokine levels (IL-1 a, IL-6, IL-8, TNF-a) versus croton oil alone [4]: downregulated multiple cytokines relevant to T2D including IL-1 a, IL-6, IL-8, and TNF-a
- adverse events observed [5, 6]: loose stools in one subject
- drug-related changes in physical examinations, vital signs, or electrocardiograms (ECGs) [5, 6]: no clinically meaningful drug-related changes
- tolerability ([5]; oral, three male subjects): well tolerated
